Results: PubChem BioAssay (NCI)
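GI50: concentration for 50% inhibition of growth. At the TGI there is no net growth.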

What was measured:
Assay in all cases: NCI anticancer screen, dose series, 384-well format
HCC-2998 colon = tested on: HCC-2998 colon
HCT-116 colon = tested on: HCT-116 colon
MDA-MB-468 breast = tested on: MDA-MB-468 breast
K-562 leukemia = tested on: K-562 leukemia
SW-620 colon = tested on: SW-620 colon
SK-OV-3 ovarian = tested on: SK-OV-3 ovarian
NCI-H226 lung = tested on: NCI-H226 lung
HOP-92 NSCLC = tested on: HOP-92 NSCLC
U251 glioblastoma = tested on: U251 glioblastoma
PC-3 prostate = tested on: PC-3 prostate
MCF7 breast = tested on: MCF7 breast
SN12C renal = tested on: SN12C renal
COLO 205 colon = tested on: COLO 205 colon
NCI-H322M lung = tested on: NCI-H322M lung
RXF 393 renal = tested on: RXF 393 renal
IGROV1 ovarian = tested on: IGROV1 ovarian
KM12 colon = tested on: KM12 colon
786-0 renal = tested on: 786-0 renal
OVCAR-3 ovarian = tested on: OVCAR-3 ovarian
ACHN renal = tested on: ACHN renal
MALME-3M melanoma = tested on: MALME-3M melanoma
HOP-62 NSCLC = tested on: HOP-62 NSCLC
A549 NSCLC = tested on: A549 NSCLC
SK-MEL-28 melanoma = tested on: SK-MEL-28 melanoma
SK-MEL-5 melanoma = tested on: SK-MEL-5 melanoma
MDA-MB-435 melanoma = tested on: MDA-MB-435 melanoma
UO-31 renal = tested on: UO-31 renal
NCI/ADR-RES ovarian = tested on: NCI/ADR-RES ovarian
SF-539 CNS = tested on: SF-539 CNS
OVCAR-4 ovarian = tested on: OVCAR-4 ovarian
NCI-H460 NSCLC = tested on: NCI-H460 NSCLC
UACC-257 melanoma = tested on: UACC-257 melanoma
SF-295 CNS = tested on: SF-295 CNS
OVCAR-8 ovarian = tested on: OVCAR-8 ovarian
HCT-15 colon = tested on: HCT-15 colon
SNB-19 CNS = tested on: SNB-19 CNS
HL-60(TB) leukemia = tested on: HL-60(TB) leukemia
HS 578T breast = tested on: HS 578T breast
NCI-H522 lung = tested on: NCI-H522 lung
CAKI-1 renal = tested on: CAKI-1 renal
TK-10 renal = tested on: TK-10 renal
MOLT-4 leukemia = tested on: MOLT-4 leukemia
HT29 colon = tested on: HT29 colon
M14 melanoma = tested on: M14 melanoma
EKVX NSCLC = tested on: EKVX NSCLC
OVCAR-5 ovarian = tested on: OVCAR-5 ovarian
T-47D breast = tested on: T-47D breast
SNB-75 CNS = tested on: SNB-75 CNS
RPMI-8226 leukemia = tested on: RPMI-8226 leukemia
CCRF-CEM leukemia = tested on: CCRF-CEM leukemia
A498 renal = tested on: A498 renal
NCI-H23 lung = tested on: NCI-H23 lung
SF-268 CNS = tested on: SF-268 CNS
BT-549 breast = tested on: BT-549 breast

In the case of `COc1cc(C(=O)NC2CCN(C)CC2)ccc1Nc1ncc2c(n1)N(C1CCCC1)CC(F)(F)C(=O)N2C`, the GI50 (HCC-2998 colon) is reported as 11.6 nM, the TGI (HCC-2998 colon) is reported as 39.6 nM and the GI50 (HCT-116 colon) is reported as less than 10 nM. For the same molecule, the TGI (HCT-116 colon) was 1170 nM, the GI50 (MDA-MB-468 breast) was less than 10 nM and the TGI (MDA-MB-468 breast) was less than 10 nM. It also gave a GI50 (K-562 leukemia) of less than 10 nM, a TGI (K-562 leukemia) of 19.7 nM and a GI50 (SW-620 colon) of less than 10 nM. For the same molecule, the TGI (SW-620 colon) was 97.4 nM, the GI50 (SK-OV-3 ovarian) was 11.4 nM and the TGI (SK-OV-3 ovarian) was 494 nM. For the same molecule, the GI50 (NCI-H226 lung) was 1560 nM, the TGI (NCI-H226 lung) was 6190 nM and the GI50 (HOP-92 NSCLC) was 20.7 nM. For the same molecule, the TGI (HOP-92 NSCLC) was 902 nM, the GI50 (U251 glioblastoma) was less than 10 nM and the TGI (U251 glioblastoma) was 1440 nM. The GI50 (PC-3 prostate) was 33.8 nM, the TGI (PC-3 prostate) was 13200 nM and the GI50 (MCF7 breast) was less than 10 nM. It also gave a TGI (MCF7 breast) of 1440 nM, a GI50 (SN12C renal) of 43.9 nM and a TGI (SN12C renal) of 1750 nM. It also gave a GI50 (COLO 205 colon) of less than 10 nM, a TGI (COLO 205 colon) of 10700 nM and a GI50 (NCI-H322M lung) of 842 nM. For the same molecule, the TGI (NCI-H322M lung) was 11800 nM, the GI50 (RXF 393 renal) was less than 10 nM and the TGI (RXF 393 renal) was 35 nM. For the same molecule, the GI50 (IGROV1 ovarian) was 18.6 nM, the TGI (IGROV1 ovarian) was 2070 nM and the GI50 (KM12 colon) was less than 10 nM. The TGI (KM12 colon) was 11200 nM, the GI50 ([…]-0 renal) was 41 nM and the TGI (786-0 renal) was 1350 nM. For the same molecule, the GI50 (OVCAR-3 ovarian) was less than 10 nM, the TGI (OVCAR-3 ovarian) was less than 10 nM and the GI50 (ACHN renal) was 666 nM. For the same molecule, the TGI (ACHN renal) was 14100 nM, the GI50 (MALME-3M melanoma) was 29.5 nM and the TGI (MALME-3M melanoma) was 1590 nM. It also gave a GI50 (HOP-62 NSCLC) of less than 10 nM, a TGI (HOP-62 NSCLC) of 2210 nM and a GI50 (A549 NSCLC) of less than 10 nM. It also gave a TGI (A549 NSCLC) of 707 nM, a GI50 (SK-MEL-28 melanoma) of 46.4 nM and a TGI (SK-MEL-28 melanoma) of 4740 nM. The GI50 (SK-MEL-5 melanoma) was less than 10 nM, the TGI (SK-MEL-5 melanoma) was 180 nM and the GI50 (MDA-MB-435 melanoma) was less than 10 nM. It also gave a TGI (MDA-MB-435 melanoma) of 12.2 nM, a GI50 (UO-31 renal) of 1310 nM and a TGI (UO-31 renal) of 7870 nM. The GI50 (NCI/ADR-RES ovarian) was 1660 nM, the TGI (NCI/ADR-RES ovarian) was 3980 nM and the GI50 (SF-539 CNS) was 17.2 nM. It also gave a TGI (SF-539 CNS) of 263 nM, a GI50 (OVCAR-4 ovarian) of 1640 nM and a TGI (OVCAR-4 ovarian) of 7570 nM. For the same molecule, the GI50 (NCI-H460 NSCLC) was 11.5 nM, the TGI (NCI-H460 NSCLC) was 35.5 nM and the GI50 (UACC-257 melanoma) was 21.7 nM. For the same molecule, the TGI (UACC-257 melanoma) was 2060 nM, the GI50 (SF-295 CNS) was 29.9 nM and the TGI (SF-295 CNS) was 134 nM. The GI50 (OVCAR-8 ovarian) was 12.3 nM, the TGI (OVCAR-8 ovarian) was 29.3 nM and the GI50 (HCT-15 colon) was 219 nM. The TGI (HCT-15 colon) was 1220 nM, the GI50 (SNB-19 CNS) was less than 10 nM and the TGI (SNB-19 CNS) was 3080 nM. It also gave a GI50 (HL-60(TB) leukemia) of less than 10 nM, a TGI (HL-60(TB) leukemia) of less than 10 nM and a GI50 (HS 578T breast) of less than 10 nM. For the same molecule, the TGI (HS 578T breast) was 31.1 nM, the GI50 (NCI-H522 lung) was less than 10 nM and the TGI (NCI-H522 lung) was less than 10 nM. The GI50 (CAKI-1 renal) was 194 nM, the TGI (CAKI-1 renal) was 10600 nM and the GI50 (TK-10 renal) was 1090 nM. It also gave a TGI (TK-10 renal) of 4950 nM, a GI50 (MOLT-4 leukemia) of less than 10 nM and a TGI (MOLT-4 leukemia) of less than 10 nM. It also gave a GI50 (HT29 colon) of less than 10 nM, a TGI (HT29 colon) of 21.5 nM and a GI50 (M14 melanoma) of 12.5 nM. For the same molecule, the TGI (M14 melanoma) was 74.3 nM, the GI50 (EKVX NSCLC) was 79.3 nM and the TGI (EKVX NSCLC) was 2700 nM. The GI50 (OVCAR-5 ovarian) was 12.2 nM, the TGI (OVCAR-5 ovarian) was 1290 nM and the GI50 (T-47D breast) was 28.2 nM. It also gave a TGI (T-47D breast) of 365 nM, a GI50 (SNB-75 CNS) of 57.4 nM and a TGI (SNB-75 CNS) of 7490 nM. It also gave a GI50 (RPMI-8226 leukemia) of 18.8 nM, a TGI (RPMI-8226 leukemia) of 43.7 nM and a GI50 (CCRF-CEM leukemia) of less than 10 nM. It also gave a TGI (CCRF-CEM leukemia) of less than 10 nM, a GI50 (A498 renal) of 106 nM and a TGI (A498 renal) of 12300 nM. It also gave a GI50 (NCI-H23 lung) of less than 10 nM, a TGI (NCI-H23 lung) of 20 nM and a GI50 (SF-268 CNS) of less than 10 nM. The TGI (SF-268 CNS) was less than 10 nM, the GI50 (BT-549 breast) was 11.3 nM and the TGI (BT-549 breast) was 159 nM.
